# Test results published in patent US20140170237A1, “ANTIMICROBIAL COMPOSITIONS CONTAINING MIXTURES OF FATTY AND HYDROXYL CARBOXYLIC ACIDS” (priority 2012, published 2014).
# Entries after “also recorded” stand apart in the source; their conditions may differ.
# Test: Cold solubility / 4 C storage of commercial fatty acids and their mixtures
# Type: physicochemical
# Conditions: 1 day, no solvent or surfactant
compound,measurement,value
"CCCCCCCCCCCC(=O)O [C12, dodecanoic]","4 C. Storage, physical state",solid or formed crystals; also recorded: Solid
